Patent US20050164370A1 (priority 2003, published 2005)

Key:
cytokinin receptor AHK2 = target: T1, cytokinin receptor AHK2 (Arabidopsis thaliana, UniProt Q9C5U2); settings: TM182-AHK2, DOLU+Glu agar, 1 nM to 100 μM tested, 30° C. for 30 hours
T1 sequence (Q9C5U2 1-1176): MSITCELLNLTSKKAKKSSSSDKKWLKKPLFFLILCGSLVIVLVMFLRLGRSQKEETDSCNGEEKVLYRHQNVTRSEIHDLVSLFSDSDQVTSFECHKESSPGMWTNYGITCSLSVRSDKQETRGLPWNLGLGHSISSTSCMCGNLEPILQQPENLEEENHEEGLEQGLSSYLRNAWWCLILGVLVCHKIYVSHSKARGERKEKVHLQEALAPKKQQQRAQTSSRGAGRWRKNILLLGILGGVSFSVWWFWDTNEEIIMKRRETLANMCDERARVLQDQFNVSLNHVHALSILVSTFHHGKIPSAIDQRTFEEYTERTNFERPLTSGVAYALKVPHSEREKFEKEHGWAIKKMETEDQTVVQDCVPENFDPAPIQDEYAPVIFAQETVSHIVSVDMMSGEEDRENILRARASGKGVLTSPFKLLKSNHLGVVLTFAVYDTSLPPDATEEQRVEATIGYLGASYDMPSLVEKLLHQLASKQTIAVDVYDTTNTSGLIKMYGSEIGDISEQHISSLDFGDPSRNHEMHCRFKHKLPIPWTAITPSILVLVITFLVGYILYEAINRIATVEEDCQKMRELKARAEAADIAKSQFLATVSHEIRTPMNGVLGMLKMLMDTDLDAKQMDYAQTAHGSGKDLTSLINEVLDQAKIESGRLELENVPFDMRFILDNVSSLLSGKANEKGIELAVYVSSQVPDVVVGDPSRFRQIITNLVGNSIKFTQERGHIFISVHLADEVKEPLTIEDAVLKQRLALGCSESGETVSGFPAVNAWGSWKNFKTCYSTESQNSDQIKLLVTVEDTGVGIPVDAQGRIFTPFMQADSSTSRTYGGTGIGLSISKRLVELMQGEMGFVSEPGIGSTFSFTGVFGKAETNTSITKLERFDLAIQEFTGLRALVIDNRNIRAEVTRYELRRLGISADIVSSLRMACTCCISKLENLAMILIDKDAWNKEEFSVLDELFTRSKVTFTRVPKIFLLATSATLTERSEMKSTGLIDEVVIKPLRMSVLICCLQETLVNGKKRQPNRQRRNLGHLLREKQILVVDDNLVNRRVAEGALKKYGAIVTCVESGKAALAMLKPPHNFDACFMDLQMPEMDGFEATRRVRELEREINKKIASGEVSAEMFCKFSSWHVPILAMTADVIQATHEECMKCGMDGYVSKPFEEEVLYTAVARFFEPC
Method: (§1) A culture solution 10 μl (about 800 clones of yeast) of the transformed cells TM182-CRE1, TM182-AHK2, TM182-AHK2Δ and TM182-AHK3 produced by the example 12 was spotted on DOLU+Glu agar media containing 10 μM of trans-zeatin and cultured at 30° C. for 30 hours. After incubation, the growth state of the transformed cells was observed and photographed by a digital camera.
(§2) Culture solutions of the transformed cells TM182-CRE1, TM182-AHK2Δ and TM182-AHK2 produced by the reference example 1 were spotted on DOLU+Glu agar media containing cytokinin in a variety of concentrations (1 nM, 10 nM, 100 nM, 1 μM, 10 μM, 100 μM) and cultured at 30° C. for 30 hours. After incubation, the growth state of the transformed cells was observed and photographed by a digital camera.

cytokinin receptor AHK2Δ = target: T2, cytokinin receptor AHK2Δ (Arabidopsis thaliana, UniProt Q9C5U2); settings: TM182-AHK2Δ, DOLU+Glu agar, 1 nM to 100 μM tested, 30° C. for 30 hours
T2 sequence (Q9C5U2 196-1176): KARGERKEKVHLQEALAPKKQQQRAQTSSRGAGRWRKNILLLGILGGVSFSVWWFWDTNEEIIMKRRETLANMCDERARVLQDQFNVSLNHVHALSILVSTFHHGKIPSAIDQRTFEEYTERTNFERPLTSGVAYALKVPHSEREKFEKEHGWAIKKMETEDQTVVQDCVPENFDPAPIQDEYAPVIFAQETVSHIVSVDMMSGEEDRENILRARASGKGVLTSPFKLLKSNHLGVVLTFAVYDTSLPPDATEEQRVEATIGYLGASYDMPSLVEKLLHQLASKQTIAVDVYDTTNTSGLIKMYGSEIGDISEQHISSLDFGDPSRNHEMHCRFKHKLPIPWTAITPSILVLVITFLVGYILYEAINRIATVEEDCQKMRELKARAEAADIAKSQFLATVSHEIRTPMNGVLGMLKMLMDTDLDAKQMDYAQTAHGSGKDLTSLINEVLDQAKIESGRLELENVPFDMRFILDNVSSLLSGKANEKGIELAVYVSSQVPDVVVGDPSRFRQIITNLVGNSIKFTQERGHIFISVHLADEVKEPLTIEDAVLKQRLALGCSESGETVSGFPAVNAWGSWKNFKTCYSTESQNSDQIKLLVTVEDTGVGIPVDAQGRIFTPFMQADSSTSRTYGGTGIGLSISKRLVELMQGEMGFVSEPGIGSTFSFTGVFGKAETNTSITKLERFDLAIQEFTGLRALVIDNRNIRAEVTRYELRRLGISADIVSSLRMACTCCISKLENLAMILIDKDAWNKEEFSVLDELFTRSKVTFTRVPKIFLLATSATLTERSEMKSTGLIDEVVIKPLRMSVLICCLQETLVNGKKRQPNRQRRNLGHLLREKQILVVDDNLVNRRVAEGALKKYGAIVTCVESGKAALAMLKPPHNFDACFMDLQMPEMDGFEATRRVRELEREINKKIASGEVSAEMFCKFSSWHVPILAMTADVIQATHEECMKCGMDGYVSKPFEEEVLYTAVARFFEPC
Method: as §1, §2

cytokinin receptor CRE1 = cytokinin receptor CRE1 (Arabidopsis thaliana, UniProt Q9C5U0, S567G/T1018A); settings: TM182-CRE1, DOLU+Glu agar, 1 nM to 100 μM tested, 30° C. for 30 hours
cytokinin receptor CRE1, sequence (Q9C5U0 24-1080 S567G/T1018A): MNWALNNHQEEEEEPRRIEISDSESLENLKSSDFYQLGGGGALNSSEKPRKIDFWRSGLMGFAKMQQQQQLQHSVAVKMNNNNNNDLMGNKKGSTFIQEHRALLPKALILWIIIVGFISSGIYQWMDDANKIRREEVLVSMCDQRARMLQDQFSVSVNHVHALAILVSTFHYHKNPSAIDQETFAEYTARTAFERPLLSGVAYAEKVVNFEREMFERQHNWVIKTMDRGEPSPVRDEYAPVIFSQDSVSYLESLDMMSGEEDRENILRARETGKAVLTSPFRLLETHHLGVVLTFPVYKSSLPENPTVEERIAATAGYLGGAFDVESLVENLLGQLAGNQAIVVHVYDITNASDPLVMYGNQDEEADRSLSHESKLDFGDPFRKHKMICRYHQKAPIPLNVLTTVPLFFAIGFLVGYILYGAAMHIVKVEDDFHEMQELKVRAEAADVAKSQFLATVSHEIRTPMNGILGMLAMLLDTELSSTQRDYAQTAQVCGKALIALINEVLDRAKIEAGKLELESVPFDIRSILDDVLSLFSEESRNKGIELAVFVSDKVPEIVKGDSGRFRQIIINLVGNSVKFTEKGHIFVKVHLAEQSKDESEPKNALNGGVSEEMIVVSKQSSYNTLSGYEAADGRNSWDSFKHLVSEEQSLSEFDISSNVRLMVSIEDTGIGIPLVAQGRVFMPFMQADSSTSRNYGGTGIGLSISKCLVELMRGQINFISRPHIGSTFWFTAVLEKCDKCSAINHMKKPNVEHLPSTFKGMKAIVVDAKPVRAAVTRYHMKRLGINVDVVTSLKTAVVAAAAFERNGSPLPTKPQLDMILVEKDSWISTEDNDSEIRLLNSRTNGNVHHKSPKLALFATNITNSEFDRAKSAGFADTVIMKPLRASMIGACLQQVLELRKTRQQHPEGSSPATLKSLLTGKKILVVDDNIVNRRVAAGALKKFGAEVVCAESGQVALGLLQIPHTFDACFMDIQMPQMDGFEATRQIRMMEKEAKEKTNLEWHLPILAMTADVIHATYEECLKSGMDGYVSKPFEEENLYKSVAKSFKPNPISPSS
Method: as §1, §2

C/C(=C/CNc1ncnc2nc[nH]c12)CO [cis-zeatin] was tested, and the “lowest observed supply concentration in which the transformed cells could be grown” value (“lowest observed supply concentration” for short) (cytokinin receptor AHK2) was 10 µM, the “lowest observed supply concentration” value (cytokinin receptor AHK2Δ) was 1 µM and the “lowest observed supply concentration” value (cytokinin receptor CRE1) was “no growth”.
